Reference: US11001570B2, “6-amino-quinolinone compounds and derivatives as BCL6 inhibitors” (Boehringer Ingelheim International GmbH, priority 2016, dated 2021)

molecular target: T1, BCL6::BCOR (Homo sapiens, UniProt P41182, C67R/C84N/C8Q); experiment: BCL6::BCOR ULight TR-FRET assay; format: binding
T1 construct: BCL6 (amino acids 5 to 129, with the following changes to the natural protein); made in house; host or cells: E. coli
Source text: Biological Methods BCL6::BCOR ULight TR-FRET Assay:
Biotinylated BCL6 protein corresponding to BCL6 (amino acids 5 to 129, with the following changes to the natural protein: C8Q, C67R, C84N) is expressed in E. coli with a carboxy-terminal Avi tag (amino acid sequence […]). The BCOR ULight peptide uses a direct carboxy-terminal ULight tag (PerkinElmer). The sequence of the peptide is CRSEIISTAPSSWVVPGP, with the amino terminus acetylated and the ULight tag attached to the cysteine. Compounds are dispensed onto assay plates (Proxiplate 384 PLUS, white, PerkinElmer) using an Access Labcyte Workstation with the Labcyte Echo 55×from a DMSO solution. For the chosen highest assay concentration of 100 μM, 150 nl of compound solution are transferred from a 10 mM DMSO compound stock solution. A series of 11 concentrations is transferred for each compound at which each concentration is fivefold lower than the previous one. DMSO is added such that every well has a total of 150 nl compound solution. 5 μL of 1 nM BCL6 protein in assay buffer (50 mM HEPES pH 7.3; 125 mM NaCl; 1 mM GSH; 0.01% Triton-X 100; 0.03% BSA) are added to the 150 nl of compounds. After 30 minutes incubation time at room temperature, 10 μL of a mix containing BCOR ULight peptide (100 nM final assay concentration) and Streptavidin-Europium (0.75 nM final assay concentration) are added. Plates are kept at room temperature. After 240 minutes incubation time the TR-FRET signal is measured in a PerkinElmer Envision HTS Multilabel Reader using the TR-FRET LANCE Ultra specs of PerkinElmer. Each plate contains negative controls (diluted DMSO instead of test compound; BCOR peptide and Streptavidin Europium mix with BCL6 protein) and positive controls (diluted DMSO instead of test compound; BCOR peptide and Streptavidin-Europium mix without BCL6 protein). Negative and positive control values are used for normalization.

SMILES | IC50 [nM]
CNC(=O)COc1cc2cc(Nc3nc(N4C[C@H](C)C[C@@H](C)C4)ncc3Cl)ccc2n(C)c1=O (single isomer, unassigned) [Compound I-5] | 12
CNC(=O)COc1cc2cc(Nc3nc(N4CC5CC4CC5(F)F)ncc3Cl)ccc2n(C)c1=O (centres unmarked) [Compound I-60] | 6
CNC(=O)COc1cc2cc(Nc3nc(N4CCC(C(=O)N(C)C)CC4)ncc3Cl)c(Cl)cc2n(C)c1=O [Compound I-164] | 281
CNC(=O)COc1cc2cc(Nc3nc(N4CCC(N(C)CC(F)(F)F)CC4)ncc3Cl)ccc2n(C)c1=O [Compound I-58] | 7
CCCn1c(=O)c(OCC(=O)NC)cc2cc(Nc3nc(N4C[C@H](C)C[C@H](C)C4)ncc3Cl)ccc21 [Compound I-79] | 11
CCn1c(=O)c(OCC(=O)NC)cc2cc(Nc3nc(-n4nc(C)cc4C)ncc3Cl)ccc21 [Compound I-160] | 7
CNC(=O)COc1cc2cc(Nc3nc(N4CCC[C@@H](C(=O)O)C4)ncc3Cl)cc(OC)c2n(C)c1=O [Compound I-95] | 2
CNC(=O)COc1cc2cc(Nc3nc(N4CCN(C)C(C)(C)C4)ncc3Cl)ccc2n(C)c1=O [Compound I-49] | 11
CNC(=O)COc1cc2cc(Nc3nc(N4CCN(CCN(C)C)C(=O)C4)ncc3Cl)ccc2n(C)c1=O [Compound I-16] | 10
CNC(=O)COc1cc2cc(Nc3nc(N4C[C@H](C(F)(F)F)C[C@H](C(F)(F)F)C4)ncc3Cl)ccc2n(C)c1=O [Compound I-14, 2-{[6-({2-[cis-3,5-bis(trifluoromethyl)piperidin-1-yl]-5-chloropyrimidin-4-yl}amino)-1-methyl-2-oxo-1,2-dihydroquinolin-3-yl]oxy}-N-methyl-acetamide] | 20
CNC(=O)COc1cc2cc(Nc3nc(N4CCC(F)(F)CC4)ncc3Cl)ccc2n(C(C)C)c1=O [Compound I-85] | 9
CNC(=O)COc1cc2cc(Nc3nc(N4CCC(C(=O)N(C)C)CC4)ncc3Cl)ccc2n(C(C)C)c1=O [Compound I-158] | 6
CNC(=O)COc1cc2cc(Nc3nc(N4CCN(CC(=O)O)C(=O)C4)ncc3Cl)ccc2n(C)c1=O [Compound I-61] | 4
C[C@@H]1C[C@H](C)CN(c2ccc(Cl)c(Nc3ccc4c(c3)cc(OCC(=O)O)c(=O)n4C)n2)C1 [Compound I-176, 2-{[6-({3-chloro-6-[cis-3,5-dimethylpiperidin-1-yl]pyridin-2-yl}amino)-1-methyl-2-oxo-1,2-dihydroquinolin-3-yl]oxy}acetic acid] | 106
CNC(=O)COc1cc2cc(Nc3nc(N4CCN(c5ccccn5)CC4)ncc3Cl)ccc2n(C)c1=O [Compound I-15] | 32
CC1CCN(c2ncc(Cl)c(Nc3ccc4c(c3)cc(OCC(=O)O)c(=O)n4C)n2)CC1 [Compound I-121] | 10
CNC(=O)COc1cc2cc(Nc3nc(N4CCC(C(=O)NCCCCCN)CC4)ncc3Cl)ccc2n(C)c1=O [Compound I-145] | 6
CNC(=O)COc1cc2cc(Nc3nc(N4CCN(CCOC)CC4)ncc3Cl)ccc2n(C)c1=O [Compound I-3, 2-{[6-({5-chloro-2-[4-(2-methoxyethyl)piperazin-1-yl]pyrimidin-4-yl}amino)-1-methyl-2-oxo-1,2-dihydroquinolin-3-yl]oxy}-N-methylacetamide] | 7
CNC(=O)COc1cc2cc(Nc3nc(N4CCC(F)(F)CC4)ncc3Cl)ccc2n(C)c1=O [Compound I-26] | 4
CNC(=O)COc1cc2cc(Nc3nc(N4CCN(CCC(=O)O)CC4)ncc3Cl)ccc2n(C)c1=O [Compound I-91] | 7
C#CCNC(=O)COc1cc2cc(Nc3nc(N4CCC(C(=O)N(C)C)CC4)ncc3Cl)ccc2n(C)c1=O [Compound I-175] | 10
Cn1c(=O)c(OCC(=O)O)cc2cc(Nc3nc(N4C[C@H]5C[C@@H](C4)c4ccccc45)ncc3Cl)ccc21 [Compound I-108] | 38
C[C@@H]1C[C@H](C)CN(c2ncc(Cl)c(Nc3ccc4c(c3)cc(/C=C/C(=O)O)c(=O)n4C)n2)C1 [Compound I-165] | 22
